Converted amounts (≈) assume the structure as drawn. Where a name gives a salt, the structure may show the parent alone. Read-outs that look alike come from different tables or passages of the source.
Assays:
Format in all cases: cell-based
[1] = system: Enterobacter cloacae GN7471; assay: minimum inhibitory concentration (MIC)
Description: (§1) The minimum inhibitory concentration (MIC) of the compounds obtained in the above Examples were measured according to the standard method of Japan Society of Chemotherapy.

[2] = system: Serratia marcescens GN10857; assay: minimum inhibitory concentration (MIC); conditions: Tables 2A, 2B
Description: as §1

[3] = system: Staphylococcus aureus IAA498; assay: minimum inhibitory concentration (MIC); conditions: Tables 2A, 2B
Description: as §1

Proteus vulgris GN7919 = assay: minimum inhibitory concentration (MIC)
Description: as §1

[4] = system: Pseudomonas aeruginosa 4au542; assay: minimum inhibitory concentration (MIC); conditions: Tables 2A, 2B
Description: as §1

Escherichia coli ML4704 = assay: minimum inhibitory concentration (MIC)
Description: as §1

[5] = system: Pseudomonas aeruginosa 5D58-1; assay: minimum inhibitory concentration (MIC); conditions: 5D581, Tables 2A, 2B
Description: as §1

[6] = system: Pseudomonas cepacia OF189; assay: minimum inhibitory concentration (MIC); conditions: Burkholderia cepacia, Tables 2A, 2B
Description: as §1

[7] = system: Pseudomonas maltophilia OF247; assay: minimum inhibitory concentration (MIC); conditions: Stenotrophomonas maltophilia, Tables 2A, 2B
Description: as §1

[8] = system: Klebsiella pneumoniae 4at521; assay: minimum inhibitory concentration (MIC); conditions: Tables 2A, 2B
Description: as §1

[9] = system: Citrobacter freundii GN7391; assay: minimum inhibitory concentration (MIC)
Description: as §1

[10] = system: Pseudomonas aeruginosa GN10362; assay: minimum inhibitory concentration (MIC); conditions: Tables 2A, 2B
Description: as §1

Escherichia coli GN5482 = assay: minimum inhibitory concentration (MIC); conditions: Tables 2A, 2B
Description: as §1

[11] = system: Enterobacter cloacae 908RN; assay: minimum inhibitory concentration (MIC)
Description: as §1

[12] = system: Staphylococcus aureus Smith; assay: minimum inhibitory concentration (MIC), standard method of Japan Society of Chemotherapy; conditions: Tables 2A, 2B
Description: as §1

[13] = Enterobacter cloacae GN7471, Tables 2A, 2B, read-out: MIC
[14] = Proteus vulgris GN7919, Tables 2A, 2B, read-out: MIC
[15] = Escherichia coli ML4704, Tables 2A, 2B, read-out: MIC
[16] = Citrobacter freundii GN7391, Tables 2A, 2B, read-out: MIC
[17] = Enterobacter cloacae 908RN, Tables 2A, 2B

Compound	MIC ([1]; Enterobacter cloacae, GN7471)	MIC [2]	MIC [3]	MIC (Proteus vulgris GN7919)	MIC [4]	MIC (Escherichia coli ML4704; Escherichia coli, ML4704)	MIC [5]	MIC [6]	MIC [7]	MIC [8]	MIC ([9]; Citrobacter freundii, GN7391)	MIC [10]	MIC (Escherichia coli GN5482)	MIC [11]	MIC [12]	MIC [1, 13]	MIC (Proteus vulgris GN7919; [14])	MIC (Escherichia coli ML4704; [15])	MIC [9, 16]	MIC [11, 17]	further results
Cc1nc2nc(CO)cc(SCC3=C(C(=O)[O-])N4C(=O)C(NC(=O)C(=NOC(C)(C)C(=O)NNC(=O)c5ccc(O)c(O)c5)c5csc(N)n5)[C@H]4SC3)n2n1.[Na+] (stereo partly drawn) [Example 37, sodium 7-{2-[2-amino-1,3-thiazol-4-yl]-2-[1-(3-(3,4-dihydroxybenzoyl)carbazoyl)-1-methylethoxyimino]acetamido}-3-[(5-hydroxymethyl-2-methyl-s-triazolo[1,5-a]pyrimidin-7-yl)thiomethyl]-3-cephem-4-carboxylate]	1.56 µg/mL	0.39 µg/mL	6.25 µg/mL	1.56 µg/mL	0.2 µg/mL	0.1 µg/mL	0.1 µg/mL	0.025 µg/mL	0.39 µg/mL	0.012 µg/mL	6.25 µg/mL	0.1 µg/mL	0.05 µg/mL	1.56 µg/mL	3.13 µg/mL						
CON=C(C(=O)NC1C(=O)N2C(C(=O)O)=C(CSc3cc(CO)nc4nc(C)nn34)CSC12)c1csc(N)n1 (stereo not drawn) [Example 38]		25 µg/mL (≈ 42.3 µM)	12.5 µg/mL (≈ 21.1 µM)		> 100 µg/mL		100 µg/mL (≈ 169 µM)	25 µg/mL (≈ 42.3 µM)	50 µg/mL (≈ 84.5 µM)	0.78 µg/mL (≈ 1.32 µM)		100 µg/mL (≈ 169 µM)	0.1 µg/mL (≈ 0.169 µM)		0.78 µg/mL (≈ 1.32 µM)	3.13 µg/mL (≈ 5.29 µM)	6.25 µg/mL (≈ 10.6 µM)	0.05 µg/mL (≈ 0.0845 µM)	25 µg/mL (≈ 42.3 µM)		MIC ([11]; Enterobacter cloacae 908RN, Tables 2A, 2B, read-out: MIC): 50 µg/mL (≈ 84.5 µM)
CC(C)(ON=C(C(=O)NC1C(=O)N2C(C(=O)[O-])=C(CSc3cc(CO)nc4nc(CO)nn34)CS[C@H]12)c1csc(N)n1)C(=O)NNC(=O)c1ccc(O)c(O)c1.[Na+] (stereo partly drawn) [Example 42, sodium 7-{2-[2-amino-1,3-thiazol-4-yl]-2[1-(3-(3,4-dihydroxybenzoyl)carbazoyl)-1-methylethoxyimino]acetamido}-3-[(2,5-bis(hydroxymethyl)-s-triazolo[1,5-a]pyrimidin-7 yl)thiomethyl]-3-cephem-4-carboxylate]	1.56 µg/mL	0.39 µg/mL	6.25 µg/mL	3.13 µg/mL	0.2 µg/mL	0.1 µg/mL	0.1 µg/mL	0.025 µg/mL	0.78 µg/mL	0.2 µg/mL	6.25 µg/mL	0.1 µg/mL	0.1 µg/mL	3.13 µg/mL	3.13 µg/mL						
Cc1cc(SCC2=C(C(=O)O)N3C(=O)C(NC(=O)C(=NOC(C)(C)C(=O)NN)c4csc(N)n4)C3SC2)n2nc(CO)nc2n1 (stereo not drawn) [Example 43, 7-[2-(2-amino-1,3-thiazol-4-yl)-2-(1-carbazoyl-1-methylethoxyimino)acetamido]-3-[(2-hydroxymethyl5-methyl-s-triazolo[1,5-a]pyrimidin-7-yl)thiomethyl]-3-cephem-4-carboxylate.dihydrochloride]		50 µg/mL	12.5 µg/mL		100 µg/mL		25 µg/mL	50 µg/mL	50 µg/mL	3.13 µg/mL		25 µg/mL	0.39 µg/mL		6.25 µg/mL	25 µg/mL	50 µg/mL	0.2 µg/mL	100 µg/mL	> 100 µg/mL	
Cc1cc(SCC2=C(C(=O)[O-])N3C(=O)C(NC(=O)C(=NOC(C)(C)C(=O)NN=Cc4ccc(O)c(O)c4)c4csc(N)n4)[C@H]3SC2)n2nc(CO)nc2n1.[Na+] (stereo partly drawn) [Example 44, sodium 7-{2-[2-amino-1,3-thiazol-4-yl]-2-[1-(3-(3,4-dihydroxybenzylidene)carbazoyl)-1-methylethoxyimino]acetamido}-3-[(2-hydroxymethyl-5-methyl-s-triazolo[1,5-a]pyrimidin-7-yl)thiomethyl]-3-cephem-4-carboxylate]	1.56 µg/mL	0.78 µg/mL	6.25 µg/mL	12.5 µg/mL	0.78 µg/mL	0.39 µg/mL	0.39 µg/mL	0.2 µg/mL	12.5 µg/mL	0.39 µg/mL	12.5 µg/mL	0.78 µg/mL	0.1 µg/mL	12.5 µg/mL	3.13 µg/mL						
COCc1nc2nc(C)cc(SCC3=C(C(=O)O)N4C(=O)C(NC(=O)C(=NOC(C)(C)C(=O)NN)c5csc(N)n5)C4SC3)n2n1 (stereo not drawn) [Example 47]		100 µg/mL (≈ 145 µM)	12.5 µg/mL (≈ 18.1 µM)		> 100 µg/mL		50 µg/mL (≈ 72.3 µM)	100 µg/mL (≈ 145 µM)	100 µg/mL (≈ 145 µM)	6.25 µg/mL (≈ 9.03 µM)		50 µg/mL (≈ 72.3 µM)	0.78 µg/mL (≈ 1.13 µM)		6.25 µg/mL (≈ 9.03 µM)	50 µg/mL (≈ 72.3 µM)	50 µg/mL (≈ 72.3 µM)	0.2 µg/mL (≈ 0.289 µM)	> 100 µg/mL	> 100 µg/mL	

From patent US4987129A, “Cephalosporin derivatives” (priority 1987, dated 1991)
